Consider 63 compounds from a melting point compilation (Tetko et al.; mined from patent text by program, amines drawn as free bases though some values may be those of a salt).

Where only a bound is given, the exact number is not on record here.

Compound `CCON=C(CC)C1=C(OC(=O)c2ccccc2)CC(c2c(OC)cc(OC)cc2OC)CC1=O` (stereo not drawn) had a melting point of 139 °C.
To `Cc1ncccc1Oc1ccc(NC(=O)N2CCc3c(n(C)c4ccccc34)CC2)cn1` belongs 159 to 160 °C; to `CCCCCCc1ccc(C#Cc2ccc(Br)cc2)cc1`, 67 °C.
For `O=C(O)C1Cc2c(cc(Cl)c3c(-c4ccccc4F)noc23)O1` (stereo not drawn), the melting point was in the range of 191 to 193 °C.
Consider `CCNC(=O)[C@@H]1CCCN1C(=O)[C@H](C)NC(=O)C12CC3CC(CC(C3)C1)C2`, for which the melting point lay in the range of 116 to 118 °C.
Under `CC(=O)OC(OC(C)=O)c1ccc([N+](=O)[O-])cc1` stands 124 to 126 °C; under `C=CCNc1nc(NCC=C)nc(N2CCN(C(=O)n3ccnc3)CC2)n1`, 78 to 82 °C; under `O=C(O)[C@@H]1CCC(=O)N1C(=O)CCC1CCCC1`, 135 to 138 °C.
With `Cc1ccccc1-c1ccc2c(c1)CCCc1c-2nc2ccc(F)cc2c1C(=O)O`, the melting point was above 300 °C.
The compound `Nc1ccc(C(=O)c2ccccc2)cc1F` registered a melting point of 83 to 85 °C.
Consider `c1ccc(COc2cc(OCc3ccccc3)c3ccncc3c2)cc1`, for which the melting point is 113 to 115 °C.
The compound `COc1cc(CCCC2OC(=O)NC2=O)ccc1OCc1nc(-c2ccc3ccccc3c2)oc1C` (stereo not drawn) returned a melting point of 173 to 174 °C.
Under `COc1ccc(C(=O)Nc2ccccc2)cc1NS(=O)(=O)c1ccc([N+](=O)[O-])cc1` stands 224 to 227 °C; under `O=C(O)Cc1ccc(OCCNC(=O)C2Cc3ccccc3N2S(=O)(=O)c2ccc(-c3cc(C(F)(F)F)ccc3Cl)cc2)cc1F` (stereo not drawn), 105 °C.
Consider `Nc1nc2c(s1)CC(N1CCN(c3ccc(Br)cn3)CC1)CC2` (stereo not drawn), for which the melting point lay within 246 to 248 °C.
On to `CC(=O)C(=Cc1ccc([N+](=O)[O-])cc1)CC(=O)OCCC#N`, for which the melting point lay in the range of 98 to 100 °C.
As for `O=C1CCCCc2cc(OCC3CCCCC3)ccc21`, the melting point lay within 86 to 88 °C.
`CS(=O)(=O)c1ccc(Oc2ccc(CC(=O)O)cc2)cc1` had a melting point of 122 to 125 °C.
The compound `O=C1c2ccccc2C2(c3ccccc3)N1CCS2(=O)=O` (stereo not drawn) returned a melting point of 190 to 193 °C.
`CCOC(=O)n1c(C(=O)c2ccccc2)c(N)c2c(Cl)cccc21` returned a melting point of 118 to 119 °C.
To `CCCCc1ccc(CCCCC(NC(C)=O)(C(=O)OCC)C(=O)OCC)cc1` belongs 60 to 61 °C; to `COC(=O)c1ccc2c(c1)c(Cc1ccc(C(=O)NS(=O)(=O)c3ccccc3C)cc1OC)cn2C`, 185 to 187 °C; to `COC(=O)Cc1c(C)n(-c2nc(OC)nc3ccccc23)c2ccc(OC)cc12`, 152 to 154 °C.
To `O=C(CCCl)Nc1cccc2c1C(=O)c1c(NC(=O)CCCl)cccc1C2=O` belongs 248 to 249 °C; to `CCCCCNc1n[nH]c(C)c1C(=O)OCC`, 117 to 119 °C.
On to `Cc1cc(O)cc(Cl)c1Cl`, for which the melting point is 98 to 100 °C.
Regarding `Nc1ccc2c(=O)n(Cc3ccccc3)c(=O)n(-c3ccccc3)c2n1`, the melting point lay in the range of 261 to 262 °C.
Consider `CC(C)Cn1c(CCCCNC(=O)Nc2ccccc2)nc2c(N)nc3ccccc3c21`, for which the melting point lay within 113 to 115 °C.
Take `Cc1cnc2sc(S(=O)(=O)Cc3ccccc3)nn2c1=O`: the melting point lay in the range of 171 to 173 °C.
Compound `COC(OC)c1cc(=O)c2ccccc2o1` had a melting point of 64 to 68 °C.
For `CCOC(=O)CCC(=O)c1ccc2c(c1)CCC2`, the melting point lay in the range of 51 to 52 °C.
`O=C1NC(=O)[C@@]2(C[C@@H](C(=O)NCCN3CCN(C(c4ccccc4)c4ccccc4)CC3)Oc3ccc(F)cc32)N1` returned a melting point of 200 to 205 °C.
For the compound `Cc1cc(C(C)(C)CC(C)(C)C)c(O)c(C)c1CC(N)=O`, the melting point was 179 to 181 °C.
As for `Cc1nnc(-c2ccc3occ(-c4ccc(C(N)=O)cc4)c3c2)o1`, the melting point is 250 to 251 °C.
The compound `COC(=O)C1=C(C)NC2=C(C(=O)CN(Cc3ccccc3)C2)C1c1ccccc1C` (stereo not drawn) showed a melting point of 201 to 204 °C.
To `CC(C)(C)OC(=O)NC(C(=O)OCC(=O)c1ccccc1)c1ccc(OCC(=O)c2ccccc2)cc1` (stereo not drawn) belongs 125 to 126 °C; to `Nc1nc2c(c(=O)[nH]1)C(CCc1ccc(C(=O)O)cc1)CN2` (stereo not drawn), above 290 °C; to `CCN(CC)CCCNc1ncc2cc(-c3c(Cl)cccc3Cl)c(NC(=O)NC(C)C)nc2n1`, 88 to 100 °C.
Under `S=C(Cc1ccc2ccccc2c1)N1CCCCC1` stands 89 to 91 °C; under `CC(C)(C)OC(=O)Nc1ccc(-c2cccc(F)c2)cc1[N+](=O)[O-]`, 93 to 96 °C; under `COc1cccc(OC)c1Cn1cnc2ccc(O)cc2c1=O`, 243 to 245 °C.
`Cc1ccccc1-c1cc(C#N)c(SSc2[nH]c(-c3ccccc3C)cc2C#N)[nH]1`: the melting point lay within 248 to 249 °C.
To `Clc1cccc2c1Oc1ccccc1NC2` belongs 71 to 73 °C; to `COc1ccc(O)c(CNc2cccs2)c1`, 109 to 110 °C; to `Nc1c(-c2ccccc2)oc2c(CO)cccc2c1=O`, 192 °C.
To `CCOC(=O)c1oc2c(C(=O)NCCCN3CCN(c4cc(Cl)ccc4OC)CC3)cccc2c(=O)c1C` belongs 107 to 115 °C; to `Cc1c(CC(=O)O)c2cc(O)ccc2n1C(=O)c1ccc(F)cc1`, 180 to 182 °C; to `CNC(=O)CC=C(CC(C)C)C(=O)OC(C)(C)C`, 35 to 36 °C.
To `O=S(=O)(c1ccccc1)n1ccc2c(CBr)cccc21` belongs 127 to 128 °C; to `CCc1nc2c(N)nc3cc(OCCNC(C)=O)ccc3c2n1CC1CCOCC1`, 165 to 167 °C; to `N#Cc1ccc(Cn2cncn2)c(-c2ccc(O)c(Cl)c2)c1`, 243 to 245 °C.
In the case of `[N-]=[N+]=NCc1ccc2nc[nH]c2c1`, the melting point fell in the range of 110 to 114 °C.
In turn, `COc1ccc2c(O)c(C(=O)NCCO)nc(Cl)c2c1` came in with a melting point of 165 to 167 °C.
On to `CCCCc1nc2c(N)nc3ccccc3c2n1CCCCNC(=O)c1ccccc1`, for which the melting point was 174 to 175 °C.
In turn, `NC(=O)c1sc2nccc(N3CCCN(c4ccccc4Cl)CC3)c2c1N` returned a melting point of 206 to 210 °C.
For the compound `O=C(O)CCCc1oc(-n2cnc3ccccc32)nc1-c1ccc(Cl)cc1`, the melting point lay within 199 to 200 °C.
As for `CC(=O)Nc1nc2c(c(=O)[nH]1)CCC(O)N2C(C)=O` (stereo not drawn), the melting point was in the range of 202 to 205 °C.
As to `COc1ccc(N2CCN(c3c(C)c(C)c4c(c3C)CC(C)(C)O4)CC2)cc1`, the melting point lay within 152 to 155 °C.
`CCC([O-])=C(C(=O)OCc1ccc([N+](=O)[O-])cc1)N1C(=O)CC1[N+](CC)(CC)CC` (stereo not drawn) had a melting point of 110 to 112 °C.
For `CC(=O)Nc1ccccc1N(CC(=O)OC(C)(C)C)C(=O)CNC(=O)Nc1cccc(C)c1`, the melting point amounted to 185 °C.
With `CCN1CCCC(NC2c3ccccc3Oc3ccccc32)C1` (stereo not drawn), the melting point lay within 47.5 to 48.5 °C.
Regarding `C[C@@H]1N[C@H](c2ccccc2)COC1=O`, the melting point lay within 82 to 83 °C.
Under `Nc1ccc2ncnc(Nc3ccc(OCc4ccccc4)cc3)c2c1` stands 173 to 175 °C.

One may read the melting point as the temperature, or range, at which the solid turns liquid.
